Measured values published in article doi:10.1101/637801v3 (biorxiv, 2019).

Experiments:
[1] = biological target: rPtxS1 (recombinant pertussis toxin S1 subunit, wild type) (Bordetella pertussis, UniProt P04977); test: fluorometric NAD+ consumption assay; assay type: biochemical
[2] = biological target: pertussis AB5 holotoxin (PtxS1-S5) (Bordetella pertussis, UniProt P04977); test: cell-based
Chain of pertussis AB5 holotoxin (PtxS1-S5) (P04977 whole entry, looked up): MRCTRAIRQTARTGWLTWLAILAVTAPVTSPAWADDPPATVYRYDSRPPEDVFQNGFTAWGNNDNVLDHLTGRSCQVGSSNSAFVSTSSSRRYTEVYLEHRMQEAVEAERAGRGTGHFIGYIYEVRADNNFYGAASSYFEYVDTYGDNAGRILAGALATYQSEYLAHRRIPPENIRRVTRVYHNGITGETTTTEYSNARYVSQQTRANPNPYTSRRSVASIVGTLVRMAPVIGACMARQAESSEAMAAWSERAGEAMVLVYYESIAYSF

Chain of rPtxS1 (recombinant pertussis toxin S1 subunit, wild type) (P04977 35-221 limits assumed): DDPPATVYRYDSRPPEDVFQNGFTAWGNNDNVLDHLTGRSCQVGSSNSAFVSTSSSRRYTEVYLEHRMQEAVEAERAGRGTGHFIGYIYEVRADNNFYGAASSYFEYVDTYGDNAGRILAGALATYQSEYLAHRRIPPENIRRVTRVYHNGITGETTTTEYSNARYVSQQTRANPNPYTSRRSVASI

Structure (SMILES)	IC50 [1] [µM]	IC50 [2] [µM]
Sc1nc2c[nH]c(S)nc-2n1 [NSC29193, purine-2,8-dithiol]	6.8	
O=C(/C=C/c1cccnc1)/C=C/c1cccnc1 [NSC149286]	20	
O=[N+]([O-])c1ccc(Sc2cccc[n+]2[O-])c2nonc12 [NSC228155, 7-nitro-4-(1-oxidopyridin-1-ium-2-yl)sulfanyl-2,1,3-benzoxadiazole]	3	2.35
